Results published in US20090214529A9, “KINESIN INHIBITORS” (TaiGen Biotechnology Co., Ltd., priority 2007, published 2009).

Tested on: tumor cell
Assay: Cytotoxicity assay (MTS)
Type: cell-based
Conditions: 72 h; incubation for three days; read-out: IC50, tumor cell growth inhibition (MTS)
Procedure: The efficacy of a test compound in inhibiting tumor cell growth was analyzed using a MTS assay. The MTS assay is a calorimetric method for the determination of viable cells in proliferation by using a tetrazolium compound (3-(4,5-dimethylthiazol-2-yl)-5-(3-[…])-2-(4-sulfophenyl)-2H-tetrazolium, inner salt; MTS) and an electron-coupling agent (phenazine methosulfate; PMS). The MTS reagent is converted by dehydrogenase enzymes in metabolically active cells into a formazan that is soluble in a tissue culture medium.
In this assay, tumor cell suspensions (30 μl/well) were seeded into 384-well flat-bottomed tissue culture plates at an appropriate density overnight. A fresh medium (3 μl/well) containing varying concentrations of a test compound or vehicle was added to the culture followed by incubation for three days. At the end of the incubation, all plates were processed simultaneously as follows: The culture medium was aspirated, a MTS cell proliferation assay (Promega) solution (30 μl/well) was added, and the plates were incubated at 37° C. for about 2 hours. Absorbance (a parameter proportional to the cell mass) was measured at 490 nm using a Multiskan (Thermo Electron Corporation, Waltham, Mass.). Inhibition effects were expressed as corrected T/C values for each test compound according to the following equation:
T/C=(T−Blank)/(C−Blank)×100(%),
where T is the mean absorbance of the treated cells, C is the mean absorbance of the controls, and Blank is the mean absorbance of the cell free well.

| Compound | IC50 |
| --- | --- |
| CCNC(=O)c1ccc(Cn2c(C(C(C)C)N(CCN)C(=O)c3ccc(C)cc3)nc3c(oc4ccc(F)cc43)c2=O)s1 (stereo not shown) [Compound 116] | < 30 µM |
| Cc1ccc(C(=O)N(CCCN)C(c2nc3nc4ccccc4nc3c(=O)n2Cc2ccccc2)C(C)C)cc1 (stereo not shown) [Compound 10] | < 30 µM |
| Cc1ccc(C(=O)N(CCN)C(c2nc3c(oc4ccc(Cl)cc43)c(=O)n2Cc2cc(C)cs2)C(C)C)cc1 (stereo not shown) [Compound 94] | < 30 µM |
| Cc1ccc(C(=O)N(CCN)C(c2nc3c(oc4ccccc43)c(=O)n2Cc2ccc(C#N)s2)C(C)C)cc1 (stereo not shown) [Compound 163] | < 30 µM |
| COC(=O)c1ccc(Cn2c(C(C(C)C)N(CCCN)C(=O)c3ccc(C)cc3)nc3c(oc4ccc(F)cc43)c2=O)s1 (stereo not shown) [Compound 89] | < 30 µM |
| Cc1ccc(C(=O)N(CCCN)C(c2nc3c(sc4ccccc43)c(=O)n2Cc2cccs2)C(C)C)cc1 (stereo not shown) [Compound 148] | < 30 µM |
| Cc1ccc(C(=O)N(CCCN)C(c2nc3c(Br)c4ccccc4cc3c(=O)n2Cc2ccc(Cl)s2)C(C)C)cc1 (stereo not shown) [Compound 6] | < 30 µM |
| CCN(CC)C(=O)c1ccc(Cn2c(C(C(C)C)N(CCN)C(=O)c3ccc(C)cc3)nc3c(oc4ccc(F)cc43)c2=O)s1 (stereo not shown) [Compound 117] | < 30 µM |
| Cc1ccc(C(=O)N(CCN)[C@@H](c2nc3c(oc4ccc(F)cc43)c(=O)n2Cc2ccccc2)C(C)C)cc1F [Compound 192] | < 30 µM |
| Cc1ccc(C(=O)N(CCN)C(c2nc3c(oc4ccc(F)cc43)c(=O)n2Cc2ccc(Cl)o2)C(C)C)cc1 (stereo not shown) [Compound 90] | < 30 µM |
| Cc1ccc(C(=O)N(CCN)C(c2nc3c(oc4ccc(Cl)cc43)c(=O)n2Cc2ccc(Br)o2)C(C)C)cc1 (stereo not shown) [Compound 103] | < 30 µM |
| Cc1ccc(Cn2c([C@@H](C(C)C)N(CCN)C(=O)c3ccc(C)cc3)nc3c(oc4ccc(F)cc43)c2=O)cc1 [Compound 180] | < 30 µM |
| Cc1ccc(C(=O)N(CCCN)C(c2nc3c(oc4ccc(Cl)cc43)c(=O)n2Cc2cc(C)cs2)C(C)C)cc1 (stereo not shown) [Compound 95] | < 30 µM |
| CC(C)C(c1nc2c(oc3ccc(F)cc32)c(=O)n1Cc1ccc(C#N)s1)N(CCN)C(=O)c1ccc(Br)cc1 (stereo not shown) [Compound 173] | < 30 µM |
| Cc1ccc(C(=O)N(CCCN)C(c2nc3cc4ccccc4cc3c(=O)n2Cc2ccccc2)C(C)C)cc1 (stereo not shown) [Compound 3] | < 30 µM |
| CCC(c1nc2c(oc3ccccc32)c(=O)n1Cc1ccccc1)N(CCCN)C(=O)c1ccc(C)cc1 (stereo not shown) [Compound 17] | < 30 µM |
| Cc1ccc(C(=O)N(CCCN)C(c2nc3c(sc4ccccc43)c(=O)n2Cc2ccc(Br)s2)C(C)C)cc1 (stereo not shown) [Compound 144] | < 30 µM |
| Cc1ccc(C(=O)N(CCCN)C(c2nc3c(oc4ccc(Cl)cc43)c(=O)n2Cc2cccc(F)c2)C(C)C)cc1 (stereo not shown) [Compound 97] | < 30 µM |
| Cc1ccc(C(=O)N(CCCN)C(c2nc3c([nH]c4ccccc43)c(=O)n2Cc2ccccc2)C(C)C)cc1 (stereo not shown) [Compound 158] | < 30 µM |
| CCC(c1nc2c(oc3ccccc32)c(=O)n1Cc1ccccc1)N(CCN)C(=O)c1ccc(C)cc1 (stereo not shown) [Compound 21] | < 30 µM |
| Cc1ccc(C(=O)N(CCCN)C(c2nc3c(oc4ccc(Cl)cc43)c(=O)n2Cc2ccc(Br)s2)C(C)C)cc1 (stereo not shown) [Compound 41] | < 30 µM |

| Compound | IC50 |
| --- | --- |
| Cc1ccc(C(=O)N(CCCN)C(c2nc3c(oc4ccccc43)c(=O)n2Cc2ccccc2O)C(C)C)cc1 (stereo not shown) [Compound 29] | < 30 µM |
| Cc1ccc(C(=O)N(CCCN)C(c2nc3c(oc4ccc(C(F)(F)F)cc43)c(=O)n2Cc2ccccc2)C(C)C)cc1 (stereo not shown) [Compound 30] | < 30 µM |
| Cc1ccc(C(=O)N(CCCN)C(c2nc3c(oc4ccc(F)cc43)c(=O)n2Cc2cccs2)C(C)C)cc1 (stereo not shown) [Compound 74] | < 30 µM |
| Cc1ccc(C(=O)N(CCN)C(c2nc3c(oc4ccc(F)cc43)c(=O)n2Cc2ccccc2)C(C)C)cc1 (stereo not shown) [Compound 105] | < 30 µM |
| Cc1ccc(C(=O)N(CCN)C(c2nc3c(oc4ccc(Cl)cc43)c(=O)n2Cc2cc(C#N)cs2)C(C)C)cc1 (stereo not shown) [Compound 129] | < 30 µM |
| Cc1ccc(C(=O)N(CCN)C(c2nc3c(oc4ccc(F)cc43)c(=O)n2Cc2cc(Br)cs2)C(C)C)cc1 (stereo not shown) [Compound 69] | < 30 µM |
| Cc1ccc(C(=O)N(CCN)C(c2nc3c(oc4ccc(F)cc43)c(=O)n2Cc2cccc(F)c2)C(C)C)cc1 (stereo not shown) [Compound 79] | < 30 µM |
| CC(C)[C@H](c1nc2c(oc3ccc(F)cc32)c(=O)n1Cc1ccoc1)N(CCN)C(=O)c1ccc(Cl)cc1 [Compound 198] | < 30 µM |
| CCC(c1nc2c(oc3ccccc32)c(=O)n1Cc1ccccc1)N(CCCN(C)C)C(=O)c1ccc(Br)cc1 (stereo not shown) [Compound 20] | < 30 µM |
| Cc1ccc(C(=O)N(CCN)C(c2nc3c(oc4ccc(F)cc43)c(=O)n2Cc2ccsc2)C(C)C)cc1 (stereo not shown) [Compound 75] | < 30 µM |
| Cc1ccc(C(=O)N(CCN)[C@@H](c2nc3c(oc4ccc(F)cc43)c(=O)n2Cc2cc(Br)co2)C(C)C)cc1F [Compound 218] | < 30 µM |
| CNC(=O)c1ccc(Cn2c(C(C(C)C)N(CCN)C(=O)c3ccc(C)cc3)nc3c(oc4ccc(F)cc43)c2=O)o1 (stereo not shown) [Compound 118] | < 30 µM |
| Cc1ccc(C(=O)N(CCN)[C@@H](c2nc3c(oc4ccc(F)cc43)c(=O)n2Cc2cc(Br)cs2)C(C)C)cc1 [Compound 215] | < 30 µM |
| Cc1ccc(C(=O)N(CCCN)C(c2nc3c([nH]c4ccc(Br)cc43)c(=O)n2Cc2ccccc2)C(C)C)cc1 (stereo not shown) [Compound 157] | < 30 µM |
| Cc1ccc(C(=O)N(CCCN)C(c2nc3c(oc4ccccc43)c(=O)n2Cc2ccccc2)C(C)C)cc1 (stereo not shown) [Compound 13] | < 30 µM |
| Cc1ccc(C(=O)N(CCCN)C(c2nc3c(oc4ccccc43)c(=O)n2Cc2ccccc2F)C(C)C)cc1 (stereo not shown) [Compound 27] | < 30 µM |
| Cc1ccc(C(=O)N(CCCN)C(c2nc3c(sc4ccccc43)c(=O)n2Cc2ccc(Br)s2)C(C)C)cc1F (stereo not shown) [Compound 146] | < 30 µM |
| CC(C)C(c1nc2n(c(=O)c1Cc1ccccc1)Cc1ccccc1-2)N(CCCN)C(=O)c1ccc(Br)cc1 (stereo not shown) [Compound 155] | < 30 µM |
| Cc1ccc(C(=O)N(CCCN)C(c2nc3c(sc4ccccc43)c(=O)n2Cc2ccccc2)C(C)C)cc1 (stereo not shown) [Compound 135] | < 30 µM |
| Cc1ccc(C(=O)N(CCN)[C@@H](c2nc3c(oc4ccc(F)cc43)c(=O)n2Cc2cccs2)C(C)C)cc1F [Compound 200] | < 30 µM |
| Cc1ccc(C(=O)N(CCCN)C(c2nc3c(sc4ccc(F)cc43)c(=O)n2Cc2ccccc2)C(C)C)cc1F (stereo not shown) [Compound 137] | < 30 µM |

| Compound | IC50 |
| --- | --- |
| Cc1ccc(C(=O)N(CCN)[C@@H](c2nc3c(oc4ccc(F)cc43)c(=O)n2Cc2ccsc2)C(C)C)cc1 [Compound 194] | < 30 µM |
| Cc1ccc(Cn2c([C@@H](C(C)C)N(CCN)C(=O)c3ccc(Cl)cc3)nc3c(oc4ccc(F)cc43)c2=O)cc1 [Compound 184] | < 30 µM |
| CCC(c1nc2c(oc3ccccc32)c(=O)n1Cc1ccccc1)N(CCCN(C)C)C(=O)c1ccc(C)cc1 (stereo not shown) [Compound 19] | < 30 µM |
| Cc1ccc(C(=O)N(CCCN)C(c2nc3c(oc4ccc(F)cc43)c(=O)n2Cc2cc(Br)co2)C(C)C)cc1 (stereo not shown) [Compound 93] | < 30 µM |
| CC(C)C(c1nc2c(sc3ccccc32)c(=O)n1Cc1ccc(Cl)s1)N(CCCN)C(=O)c1ccc(Cl)cc1 (stereo not shown) [Compound 143] | < 30 µM |
| Cc1ccc(C(=O)N(CCCN)C(c2nc3c(oc4ccc(F)cc43)c(=O)n2Cc2cc(C)cs2)C(C)C)cc1 (stereo not shown) [Compound 85] | < 30 µM |
| Cc1ccc(C(=O)N(CCN)C(c2nc3c(oc4ccc(Cl)cc43)c(=O)n2Cc2ccc(/C=C/O)s2)C(C)C)cc1 (stereo not shown) [Compound 134] | < 30 µM |
| CCC(c1nn2c(cc3ccccc32)c(=O)n1Cc1ccccc1)N(CCCN)C(=O)c1ccc(C)cc1 (stereo not shown) [Compound 159] | < 30 µM |
| Cc1csc(Cn2c(C(C(C)C)N(CCN)C(=O)c3ccc(Br)cc3)nc3c(oc4ccc(F)cc43)c2=O)c1 (stereo not shown) [Compound 167] | < 30 µM |
| Cc1ccc(C(=O)N(CCN)C(c2nc3c(oc4ccc(Cl)cc43)c(=O)n2Cc2ccsc2)C(C)C)cc1 (stereo not shown) [Compound 77] | < 30 µM |
| Cc1ccc(C(=O)N(CCN)[C@@H](c2nc3c(oc4ccc(F)cc43)c(=O)n2Cc2ccc(Cl)s2)C(C)C)cc1 [Compound 182] | < 30 µM |
| Cc1ccc(C(=O)N(CCN)C(c2nc3c(oc4ccc(Cl)cc43)c(=O)n2Cc2ccccc2)C(C)C)cn1 (stereo not shown) [Compound 56] | < 30 µM |
| Cc1ccc(C(=O)N(CCCN)C(c2nc3c(oc4ccc(F)cc43)c(=O)n2Cc2cccc(F)c2)C(C)C)cc1 (stereo not shown) [Compound 80] | < 30 µM |
| Cc1ccc(C(=O)N(CCN)C(c2nc3c(oc4ccc(Cl)cc43)c(=O)n2Cc2ccc(Cl)s2)C(C)C)cc1 (stereo not shown) [Compound 46] | < 30 µM |
| CCC(c1nc2c(oc3ccccc32)c(=O)n1Cc1ccccc1)N(CCN(C)C)C(=O)c1ccc(Br)cc1 (stereo not shown) [Compound 23] | < 30 µM |
| Cc1ccc(C(=O)N(CCCN)C(c2nc3c(oc4ccccc43)c(=O)n2Cc2cccs2)C(C)C)cc1 (stereo not shown) [Compound 15] | < 30 µM |
| CC(C)[C@H](c1nc2c(oc3ccc(F)cc32)c(=O)n1Cc1ccccc1)N(CCN)C(=O)c1ccc(Cl)cc1 [Compound 193] | < 30 µM |
| Cc1ccc(C(=O)N(CCN)C(c2nc3c(oc4ccc(Cl)cc43)c(=O)n2Cc2ccc(C(F)(F)F)o2)C(C)C)cc1 (stereo not shown) [Compound 101] | < 30 µM |
| Cc1ccc(C(=O)N(CCN)C(c2nc3c(oc4cccc(F)c43)c(=O)n2Cc2ccccc2)C(C)C)cc1 (stereo not shown) [Compound 60] | < 30 µM |
